Results published in paper PMC12037037 (Proceedings of the National Academy of Sciences of the …, 2025).

Tests used:
[1] = system: female C57BL/6J mice, medial prefrontal cortex; experiment: In vivo spinogenesis and synaptogenesis (S3EM, layer 1 mPFC); details: 24 h
[2] = system: male Sprague Dawley rats; experiment: Rat forced swim test (FST); assay type: in vivo; details: for Swimming (Figure 6B) / Immobility (Figure 6B): 24 h after administration; for Swimming (Figure 6B): VEH 22.10 ± 1.929; for Immobility (Figure 6B): VEH 37.20 ± 1.867
Procedure: (§1) Reads were aligned to the GRCm39 genome assembly using STAR, processed with Picard, and counted with the Subread software. Transcript inclusion criteria consisted of a minimum raw expression level of 25 transcripts in a minimum of 4 samples. Surrogate variable analysis was conducted with the sva package 2023 release v3.5.0 in R and normalization and differential expression analysis was performed with DESeq2 v4.3 with a baseMean threshold of 10. Heatmaps were created with the pheatmap v1.0.12 with sample-wise z-scores plotted and both row and column grouping allowed using pearson's distances and ward.D for clustering. Gene-wise selection criteria for heatmaps were a baseMean expression threshold of 50 to focus on robustly expressed genes, p value < 0.05, and presence in the top 250 genes sorted by absolute value of log2FC. Additionally, z score was capped at 2 for visualization purposes. Schizophrenia gene sets were extracted from a recent TWAS study (30).
(§2) For Figure S8G, the TWAS set was filtered for FDR < 0.01. Permutation testing was conducted to quantify the overlap of top genes from schizophrenia TWAS with the perm_test function from the bulkWarehouse package 2023 release v1.2.7.
Briefly, the intersection of top differentially expressed genes and top TWAS genes is compared to an empirical distribution created by calculating the intersection with our top DEGs when randomly sampling candidate genes from our dataset equal to the size of the TWAS sample. Selection criteria from the TWAS include an expression level of 25 transcripts in a minimum of 4 samples in our dataset, FDR < 0.01 from the TWAS and top 250 sorted by absolute value of log2FC. Selection criteria from our gene set were an expression level of 25 transcripts in a minimum of 4 samples, p value < 0.1 and top 250 sorted by absolute value of log2FC.
Rat Forced Swim Test (FST). This study was performed by Psychogenics (Paramus, NJ). Male Sprague Dawley rats were purchased from Envigo (Indianapolis, IN), and were 8 weeks old at the time of the experiments. Upon receipt, they were assigned unique identification numbers (tail marked) and group housed in ventilated cages with 3 rats per cage. All animals […]
remained housed in groups of three for the remainder of the study. All rats were acclimated to the colony room for up to one week prior to dosing. During the period of acclimation, rats were examined and handled daily, and weighed to assure adequate health and suitability. The room temperature was maintained between 20 °C and 23 °C with a relative humidity of 30%–70%. Lab Rodent Diet 5001 (W.F. Fisher, Cat # 11015) and water were provided ad libitum. Animals were randomly assigned across treatment groups. All testing was performed during the light phase of the light/dark cycle. Behavioral testing was conducted according to established protocols approved by the IACUC committee and PGI Standard Operation Procedures (SOP). Each forced swim chamber was constructed of clear acrylic (height = 40 cm; diameter = 20.3 cm). Only one rat was placed in the swim chamber at a time for each swim test. The water was changed and the chamber cleaned between each animal. The water depth was 16 cm in the first swim session (pre-test) and 30 cm in the second swim session (test). The water was maintained at 23 °C ± 1 °C for all swim sessions. At the end of each swim test rats were dried with paper towels and returned to the home cage. All animals were carefully monitored to ensure their safety in the swim test and any animal unable to maintain a posture with its nose above water was immediately removed from the water and not used further in the study. Animals were first subjected to a pre-test for 15 min. Immediately after the pre-test, they were administered compounds or VEH via i.p. injection (1 ml/kg). Racemic ketamine hydrochloride (10 mg/kg) was used as a positive control. A salt correction factor of 1.36 was used when preparing formulations of (+)-JRT to ensure that the dose corresponded to that of the free base. […]

[3] = system: E18 rat embryonic cortical neurons (DIV18-19); experiment: Spinogenesis assay using cultured rat cortical neurons; assay type: cell-based
[4] = biological target: 5-HT2A receptor membrane preparations obtained from PSYLI2 cells (Homo sapiens, UniProt P28223); experiment: Ligand binding kinetics with [3H]-LSD on PSYLI2 membrane preparations; details: kinetics of competition binding vs [3H]-LSD
Chain of 5-HT2A receptor membrane preparations obtained from PSYLI2 cells (P28223 1-263 limits assumed): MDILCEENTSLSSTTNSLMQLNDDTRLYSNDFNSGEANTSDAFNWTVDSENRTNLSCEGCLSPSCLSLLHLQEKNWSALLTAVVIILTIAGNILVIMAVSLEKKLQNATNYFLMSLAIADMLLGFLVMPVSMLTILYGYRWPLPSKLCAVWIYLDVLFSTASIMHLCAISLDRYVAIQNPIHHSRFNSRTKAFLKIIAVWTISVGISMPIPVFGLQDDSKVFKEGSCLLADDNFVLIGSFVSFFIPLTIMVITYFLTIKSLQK
Chain of 5-HT2A receptor membrane preparations obtained from PSYLI2 cells (P28223 316-471 limits assumed): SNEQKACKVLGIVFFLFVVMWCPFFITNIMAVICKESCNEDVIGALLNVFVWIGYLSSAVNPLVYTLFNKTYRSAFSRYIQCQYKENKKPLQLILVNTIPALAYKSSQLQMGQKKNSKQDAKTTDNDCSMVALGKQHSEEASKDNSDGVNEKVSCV
Procedure: Ligand binding kinetics at the 5-HT2AR.
Data represent the mean ± SEM of 2–3 biological replicates.
Data represent the mean ± SEM of 2–4 biological replicates.
Binding buffer consisted of 50 mM Tris HCl, 10 mM MgCl2, 0.1 mM EDTA disodium dihydrate in autoclaved
deionized water. The solution was adjusted to pH 7.4 with 10 M NaOH(aq) and stored at 4 °C. This solution was used in
membrane preparation generation as well as competition and kinetics assays.
free, see 15) were grown in 15-cm plates with Dulbecco’s Modified Eagle Media (DMEM) containing 10% fetal bovine serum and 1% penicillin/streptomycin. When the cells were >90% confluent, the media was removed, and the cells were washed
with Dulbecco’s Phosphate Buffered Saline (DPBS) (15 mL). Next, DMEM (15 mL) lacking fetal bovine serum and
penicillin/streptomycin was added, and the cells were serum-starved for 4–12 hours. Roughly 10 mL of the DMEM was
removed, leaving ~5 mL of media in the plates before placing them on ice. Once on ice, the plates were scraped and the
contents were transferred to a pre-chilled 50 mL Falcon tube and then centrifuged (2,000 g, 10 min, 4 °C). The supernatant […]
of 0.25 mL to use for quantification of protein concentration via a Bradford assay with a Coomassie protein assay reagent. […]
For association binding experiments, total and nonspecific binding was determined by adding binding buffer (2.5X solution, […]

[5] = biological target: psychLight S242A^5.46 (murinized variant) (Homo sapiens, UniProt P28223, S242A); experiment: PsychLight assay, S242A^5.46 mutant; assay type: cell-based
Chain of psychLight S242A^5.46 (murinized variant) (P28223 with tags, fused parts or gaps S242A): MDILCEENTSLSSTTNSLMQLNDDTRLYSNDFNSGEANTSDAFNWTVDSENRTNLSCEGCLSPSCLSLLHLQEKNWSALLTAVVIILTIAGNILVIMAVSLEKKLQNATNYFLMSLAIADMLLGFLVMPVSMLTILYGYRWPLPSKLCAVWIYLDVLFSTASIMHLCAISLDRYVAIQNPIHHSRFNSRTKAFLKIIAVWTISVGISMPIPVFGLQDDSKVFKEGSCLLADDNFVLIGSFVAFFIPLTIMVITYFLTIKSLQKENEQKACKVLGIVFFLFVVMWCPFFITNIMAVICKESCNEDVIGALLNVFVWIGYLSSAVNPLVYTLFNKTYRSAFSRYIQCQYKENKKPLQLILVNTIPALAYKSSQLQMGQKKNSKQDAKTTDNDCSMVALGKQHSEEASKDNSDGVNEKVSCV
Chain of psychLight S242A^5.46 (murinized variant) (P42212 with tags, fused parts or gaps partner): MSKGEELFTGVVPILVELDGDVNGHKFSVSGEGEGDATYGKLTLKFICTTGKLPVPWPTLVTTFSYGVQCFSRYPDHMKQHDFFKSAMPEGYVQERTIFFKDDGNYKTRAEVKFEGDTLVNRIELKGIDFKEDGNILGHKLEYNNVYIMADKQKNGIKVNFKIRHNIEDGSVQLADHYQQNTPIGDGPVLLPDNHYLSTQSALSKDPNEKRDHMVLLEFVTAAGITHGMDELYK
Procedure: PsychLight Assays. Psychlight assays were performed using a previously published method (15) with slight modifications.
Briefly, a solution of PSYLI2 cells suspended in DMEM containing 10% FBS with 5% penicillin-streptomycin was added to
poly-D-lysine-coated glass bottom 96-well plates. The cells were plated at a density of 60,000 cells/well for the inner 60
wells and 90,000 cells/well for the outer 36 wells and incubated at 37°C with 5% CO2 for 18–24 h prior to each experiment.
On the day of each experiment, the DMEM solution was replaced with 100 µL/well Hoechst solution (2 µM in HBSS) and
incubated for 30 min at 37°C with 5% CO2. Plates were then washed 3x 200 µL HBSS and replaced with 160 µL/well of
assay buffer (HBSS with 0.5 mM HEPES buffer, adjusted to pH = 7.4 with 1 M NaOH) and incubated for 30 min (37°C, 5%
CO2). The cells were then imaged on a Thermo Scientific CellInsight CX7 LZR High Content Analysis Platform at 10X
(37°C, 5% CO2). Images from nine regions of interest (ROI) per well were obtained following the default ROI pattern with
no bias to location and no overlap of the ROIs. Baseline images were collected prior to drug addition. Following baseline
imaging, cells were treated with 40 µL of drugs at the indicated concentrations (final solutions contained 0.2% DMSO) and
incubated (37°C, 5% CO2) for 1 h before treatment images were acquired using identical parameters. In the case of
activation was quantified using the built-in Target Validation Assay (version 6.0.1.4021) on the Thermo Scientific HCS Studio
Cellomics data analysis program. Primary objects were identified and validated using the Hoechst stain and secondary
objects (psychLight signal) were defined as signal within 12 pixels of the primary objects. PsychLight signal was calculated
as a ΔF/F according to the following equation:
ΔF = psychLight activation (treatment) − psychLight activation (baseline)
F psychLight activation (baseline)
PsychLight S242A5.46 plasmid construction and transfection. To introduce the serine to alanine mutation in […]

[6] = system: Thy1-EGFP mice, layer 2/3 of the mPFC; experiment: In vivo spinogenesis after chronic corticosterone administration; details: 24 h, mean ± SEM
Procedure: In Vivo Spinogenesis after chronic corticosterone administration. Male and female Thy1-EGFP mice were given 1 week to acclimate to the new vivarium, then transferred to new cages (individually housed). Once individually housed, the mice were administered corticosterone (20 mg/kg; IP) in DMSO (2 mL/kg) or gently handled daily for 20 days. On day 21, mice were treated with VEH (saline) or (+)-JRT (1 mg/kg; IP). After 24 h, mice were anesthetized with isoflurane and transcardially perfused with paraformaldehyde (PFA, 4% in PBS, 7.4 pH). After extraction of the brains, samples were fixed in 4% PFA at 4° C overnight. The brains were cryo-protected by immersion in a 15% sucrose solution (15% sucrose in PBS w/v) overnight. Next, samples were placed in 30% sucrose solution (30% sucrose in PBS w/v) for at least 1 day. Samples were then embedded in optimal cutting temperature compound (OCT), sliced into 100 µm coronal sections using a cryostat, and mounted on slides which were left in the dark overnight to dry. Coverslips were mounted onto microscope slides using ProLong Gold. Slides were imaged on a Nikon HCA Spinning Disc confocal microscope equipped with a 100x/NA 1.45 oil objective. Images of dendrites and dendritic spines within layer 2/3 of the mPFC were captured and manually counted by a trained experimenter blinded to treatment conditions.

[7] = system: male C57BL/6J mice; experiment: PCP-induced locomotion (Psychogenics); assay type: in vivo
Procedure: IP) can block AMPH-induced hyperlocomotion in female, but not male, mice. (B) Pretreatment with (+)-JRT (1 mg/kg, IP) […]
AMPH = (+)-amphetamine; PCP = phencyclidine; VEH = vehicle; ns = not significant. *p < 0.05, **p < 0.01, ***p < 0.001, ****p < 0.0001, as compared to the comparator(s) indicated by a horizontal bar. See Methods and SI Appendix, Table S1 for full details on statistics.
(1 picture or pasted object on this page, not shown here) […]
PCP-Induced Locomotion. The PCP-induced hyperlocomotion assay was performed by Psychogenics using male C57BL/6J mice that were approximately 8 weeks old at the time of the experiments. The experiment was performed during the animal’s light cycle phase. On the day of testing, animals were acclimated to the experimental room for at least 1 h prior to treatment. Animals were then administered with VEH or JRT (IP, 10 mL/kg) and placed in holding cages for 30 min, after which mice were placed in the open field chambers (27.3 x 27.3 x 30.3; Med Associates Inc., St Albans, VT). Baseline activity was recorded for 30 min. Next, mice received either PCP (5 mg/kg, IP, 10 ml/kg) or VEH and were returned to the open field chambers for a 60 min test session. Locomotion was assessed using consecutive infrared beam breaks. At the end of each session, the chambers were thoroughly cleaned. […]
as §1, §2
Briefly, the intersection of top differentially expressed genes and top TWAS genes is compared to an empirical distribution created by calculating the intersection with our top DEGs when randomly sampling candidate genes from our dataset equal to the size of the TWAS sample. […]

## CCN(CC)C(=O)[C@@H]1C=C2c3cccc4ccn(c34)C[C@H]2N(C)C1 [(+)-JRT]
[1]; 1 mg/kg IP
  Synapse size: remained unchanged
[1]; single administration 1 mg/kg IP, S3EM
  Increase in synapse density within the mPFC: 18%
[1]; single administration 1 mg/kg IP, layer 1, S3EM
  Increase in dendritic spine density within the mPFC: 46%
[2]; 0.3mg/kg IP
  Swimming (Figure 6B): 31.70 ± 2.534
  Immobility (Figure 6B): 27.20 ± 2.546
[2]; 1.0mg/kg IP
  Swimming (Figure 6B): 31.50 ± 1.778
  Immobility (Figure 6B): 27.70 ± 1.850
[2]; lowest effective dose not determined
  Potency relative to ketamine in the forced swim test: at least 100 fold
[3]; 1 μM, 24 h, DIV19, compared to vehicle (P < 0.0001) and CLZ (P = 0.0005)
  Dendritic spine growth in mature cortical cultures: promoted dendritic spine growth
[3]; compound 1 μM
  Effect of ketanserin (10 μM) pretreatment on compound-induced dendritic spine density: blocks
[4]
  Dissociation rate from the 5-HT2A receptor, fold faster than LSD: approximately 10 fold
[5]; psychLight (S242A^5.46): EC50, agonist mode
  EC50: 39 nM
[5]; psychLight (S242A^5.46): EC50, antagonist mode, cotreated with 10 μM serotonin (5-HT + compound)
  EC50: 473 nM
[5]; read-out: psychLight (S242A^5.46): EMax
  Emax: 32%
[6]; GH (gentle handling) + JRT 1 mg/kg IP, GH VEH 12.17 ± 0.5278
  Dendritic spine density, layer 2/3 mPFC (Table S1, matches Fig. 4N): 11.36 ± 0.8451
[6]; chronic CORT 20 d + JRT 1 mg/kg IP
  Dendritic spine density, layer 2/3 mPFC (Table S1, matches Fig. 4N): 10.77 ± 0.5664
[7]; (+)-JRT (0.1) + PCP 5 mg/kg IP
  Locomotion, infrared beam breaks (Figure 11B): 30482 ± 2310
[7]; (+)-JRT (0.3) + PCP 5 mg/kg IP
  Locomotion, infrared beam breaks (Figure 11B): 26618 ± 2425
[7]; (+)-JRT (1) + PCP 5 mg/kg IP
  Locomotion, infrared beam breaks (Figure 11B): 27253 ± 2401
